Series [1] in a line: in vitro. The settings on record: human. The class given is cell-based.
The test system of series [2] is HIV-1 HXB2 Y181C variant. Description: MT-4 antiviral cytopathic effect assay, HXB2-Y181C. It is filed as cell-based.
Series [3] can be described thus: Predicted clearance in human liver microsomes. The following applies: pH 7.4, 1 μM compound, read-out: HLM CLint, pred (converted). The class given is in vitro ADME.

SMILES strings stand for the structures.

We go through one compound from publication PMC10017027, “Design and Synthesis of Novel HIV-1 NNRTIs with Bicyclic Cores and with Improved Physicochemical Properties” (Journal of Medicinal Chemistry, 2023).

One may read the CC50 as the concentration that lowers cell viability or growth by half. Higher therefore signals better tolerance by the cells. The EC50 is the midpoint of the concentration-response curve. The compound `Cc1cc(C#N)cc(C)c1N1CC(=O)Nc2cnc(Nc3ccc(C#N)cc3)nc21` [Compound 3, 4-(2-((4-Cyanophenyl)amino)-6-oxo-6,7-dihydropteridin-8(5H)-yl)-3,5-dimethylbenzonitrile] yielded a CC50 at 5 days in series [1] greater than 50000 nM. The concentration for a half-maximal effect (EC50) in series [2] (Human immunodeficiency virus 1, HXB2, read-out: EC50 Y181C) was found to be 30.2 nM. Further, the “Y181C (FC)” value was 3.7 in series [2] (fold change: ratio of potency against HXB2 Y181C and parental HXB2); 3.7 in series [2] (supplement CSV, fold change vs HXB2). Moreover, the “potency against Y181C mutated strain” value in series [2] (preliminary biological data, in words) is “high potency”. Moreover, in series [3], the CLint scaled at 1.167 h, 1 µM is 18.3 mL/min/kg.
